7 compounds from patent US12134610B2, “Somatostatin subtype-2 receptor (SST2R) targeted therapeutics and uses thereof” (priority 2022, dated 2024) can be followed below.

Like-named read-outs stand apart in the source and are kept apart here.

Common to all, as to format: cell-based
The target of assay [1] is T1, human somatostatin receptor subtype 2 (Homo sapiens, UniProt P30874).
T1 construct: expressed in transfected cells
In words: Functional cAMP assay for SSTR2 agonists (HTRF) in CHO-K1 cells. The settings on record: CHO-K1 cells stably expressing human SST2, 20 min. The procedure, abridged: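 Agonism scored as loss of NKH477 (1.6 μM)-driven cAMP, with IBMX present, after 20 min, 37° C. exposure of stably transfected CHO-K1 cells to compound dilutions (typically 0-10,000 nM). Lysates read by time-resolved FRET; cAMP interpolated from standard curve and EC50 derived.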

In the next assay the target is T2, SST2 (Homo sapiens, UniProt P30874).
T2 construct: host or cells: PathHunter CHO-K1 SST2 cells
Nature of the assay: PathHunter CHO-K1 SST2 internalization assay. The settings on record: PathHunter CHO-K1 SST2, 90 min. In outline: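 IC50 comes from four-parameter curves on background-corrected duplicates of Beta-Glo luminescence, read after 60 min at room temperature in the dark. Before that, CHO-K1 SST2 internalization cells (48 h post-seeding) received SMDC as eleven threefold dilutions, 10 uM highest final, for 90 min at 37 C.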

Assay [2] has as its system NCI-H524 (ATCC) human small cell lung cancer cells. The procedure, abridged:
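CellTiter-Glo luminescence after a 2 h SMDC pulse (top dose 1 uM, 2-fold dilutions, 11 points), medium wash, then 70 h recovery. Cells were seeded at 5,000/well and dosed 24 h later. % inhibition vs control gave IC50 via four-parameter fit.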

T2 sequence (P30874 whole entry): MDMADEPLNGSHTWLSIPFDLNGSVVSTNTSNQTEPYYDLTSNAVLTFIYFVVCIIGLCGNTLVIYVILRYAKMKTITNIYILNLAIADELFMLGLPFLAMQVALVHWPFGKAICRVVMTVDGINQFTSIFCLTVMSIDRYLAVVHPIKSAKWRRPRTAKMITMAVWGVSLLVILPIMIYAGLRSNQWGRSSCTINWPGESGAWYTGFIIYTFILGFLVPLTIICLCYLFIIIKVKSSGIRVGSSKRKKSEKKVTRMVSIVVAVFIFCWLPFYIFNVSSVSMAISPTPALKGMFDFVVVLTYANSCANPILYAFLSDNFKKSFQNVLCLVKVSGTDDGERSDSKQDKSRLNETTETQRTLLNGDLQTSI
T1 sequence (P30874 whole entry): as above

For the compound `CC[C@@]1(O)C(=O)OCc2c1cc1n(c2=O)Cc2c-1nc1cc(F)c(C)c3c1c2[C@@H](NC(=O)OCc1ccc(NC(=O)[C@H](CCCNC(N)=O)NC(=O)[C@@H](NC(=O)CCOCCC(=O)NCCNc2ncc(-c4cc(C)cc(F)c4)c(N4CCC(N)CC4)c2-c2nc4ccc(Cl)cc4[nH]2)C(C)C)c(O[C@@H]2O[C@H](C(=O)O)[C@@H](O)[C@H](O)[C@H]2O)c1)CC3` [Compound 126], the EC50 was 0.29 nM in assay [1] (hSST2 cAMP Avg EC50 (nM)); 3.4 nM on SST2 (Internalization EC50 (nM)); 100 nM in assay [2] (2 h treatment, washout, additional 70 h, read-out: H524 EC50).

With `CC[C@H](C)[C@@H]([C@@H](CC(=O)N1CCC[C@H]1[C@H](OC)[C@@H](C)C(=O)N[C@H](C)[C@@H](O)c1ccccc1)OC)N(C)C(=O)[C@@H](NC(=O)[C@H](C(C)C)N(C)C(=O)OCc1ccc(NC(=O)[C@H](CCCNC(N)=O)NC(=O)[C@@H](NC(=O)CCOCCNCCNc2ncc(-c3cc(C)cc(F)c3)c(N3CCC(N)CC3)c2-c2nc3ccc(Cl)cc3[nH]2)C(C)C)c(O[C@@H]2O[C@H](C(=O)O)[C@@H](O)[C@H](O)[C@H]2O)c1)C(C)C` [Compound 128], the EC50 in assay [1] (read-out: hSST2 cAMP Avg EC50) worked out at 0.18 nM; on SST2 (read-out: Internalization EC50) it was 8.7 nM; in assay [2] (2 h), 31 nM.

As for `CC[C@H](C)[C@@H]([C@@H](CC(=O)N1CCC[C@H]1[C@H](OC)[C@@H](C)C(=O)N[C@H](C)[C@@H](O)c1ccccc1)OC)N(C)C(=O)[C@@H](NC(=O)[C@H](C(C)C)N(C)C(=O)OCc1ccc(NC(=O)[C@H](CCCNC(N)=O)NC(=O)[C@@H](NC(=O)CCOCCOCCOCCOCCNCCNc2ncc(-c3cc(C)cc(F)c3)c(N3CCC(N)CC3)c2-c2nc3ccc(Cl)cc3[nH]2)C(C)C)c(O[C@@H]2O[C@H](C(=O)O)[C@@H](O)[C@H](O)[C@H]2O)c1)C(C)C` [Compound 129], the EC50 in assay [1] (read-out: hSST2 cAMP Avg EC50) amounted to 0.34 nM; at SST2 (read-out: Internalization EC50), 21 nM; in assay [2] (2 h), 290 nM.

In the case of `CC[C@H](C)[C@@H]([C@@H](CC(=O)N1CCC[C@H]1[C@H](OC)[C@@H](C)C(=O)N[C@H](C)[C@@H](O)c1ccccc1)OC)N(C)C(=O)[C@@H](NC(=O)[C@H](C(C)C)N(C)C(=O)OCc1ccc(NC(=O)[C@H](C)NC(=O)[C@@H](NC(=O)CCOCCNCCNc2ncc(-c3cc(C)cc(F)c3)c(N3CCC(N)CC3)c2-c2nc3ccc(Cl)cc3[nH]2)C(C)C)c(O[C@@H]2O[C@H](C(=O)O)[C@@H](O)[C@H](O)[C@H]2O)c1)C(C)C` [Compound 130], the results for the EC50 (in assay [1] (read-out: hSST2 cAMP Avg EC50); at SST2 (read-out: Internalization EC50); in assay [2] (2 h)) were 0.29 nM, 25 nM and 140 nM, respectively.

In the case of `CC[C@H](C)[C@@H]([C@@H](CC(=O)N1CCC[C@H]1[C@H](OC)[C@@H](C)C(=O)N[C@H](C)[C@@H](O)c1ccccc1)OC)N(C)C(=O)[C@@H](NC(=O)[C@H](C(C)C)N(C)C(=O)OCc1ccc(NC(=O)[C@H](C)NC(=O)[C@@H](NC(=O)CCOCCC(=O)NCCNc2ncc(-c3cc(C)cc(F)c3)c(N3CCC(N)CC3)c2-c2nc3ccc(Cl)cc3[nH]2)C(C)C)c(O[C@@H]2O[C@H](CO)[C@@H](O)[C@H](O)[C@H]2O)c1)C(C)C` [Compound 131], the EC50 is 0.13 nM in assay [1] (read-out: hSST2 cAMP Avg EC50), 5.2 nM at SST2 (read-out: Internalization EC50) and 4 nM in assay [2] (2 h).

Take `CC[C@H](C)[C@@H]([C@@H](CC(=O)N1CCC[C@H]1[C@H](OC)[C@@H](C)C(=O)N[C@H](C)[C@@H](O)c1ccccc1)OC)N(C)C(=O)[C@@H](NC(=O)[C@H](C(C)C)N(C)C(=O)OCc1ccc(NC(=O)[C@H](CCCNC(N)=O)NC(=O)[C@@H](NC(=O)CCOCCC(=O)NCCNc2ncc(-c3cc(C)cc(F)c3)c(N3CCC(N)CC3)c2-c2nc3ccc(Cl)cc3[nH]2)C(C)C)c(O[C@@H]2O[C@H](C(=O)O)[C@@H](O)[C@H](O)[C@H]2O)c1)C(C)C` [Compound 132]: the EC50 amounted to 0.2 nM in assay [1] (read-out: hSST2 cAMP Avg EC50), 5.7 nM at SST2 (read-out: Internalization EC50) and 22 nM in assay [2] (2 h).

With `CC[C@H](C)[C@@H]([C@@H](CC(=O)N1CCC[C@H]1[C@H](OC)[C@@H](C)C(=O)N[C@H](C)[C@@H](O)c1ccccc1)OC)N(C)C(=O)[C@@H](NC(=O)[C@H](C(C)C)N(C)C(=O)OCc1ccc(NC(=O)[C@H](CCCNC(N)=O)NC(=O)[C@@H](NC(=O)CCCCC(=O)NCCNc2ncc(-c3cc(C)cc(F)c3)c(N3CCC(N)CC3)c2-c2nc3ccc(Cl)cc3[nH]2)C(C)C)c(O[C@@H]2O[C@H](C(=O)O)[C@@H](O)[C@H](O)[C@H]2O)c1)C(C)C` [Compound 133], the EC50 came out at 0.11 nM in assay [1] (read-out: hSST2 cAMP Avg EC50), 6 nM at SST2 (read-out: Internalization EC50) and 34 nM in assay [2] (2 h).
